Measured values as given in PubChem BioAssay AID1919008 (Molecular Pharmacology Branch, DTP, NCI, 2023).

System: DMS-114 complex spheroids with HUVEC/MSC, growth % test/control
Assay: Anticancer human tumor DMS-114 cell line growth inhibition [AhR];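 also: spheroids exposed to agents for 7 days before readout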;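 as to viability, T/C: 100% = DMSO vehicle control wells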
Details: for IC50: curve of first compound; for viability, T/C: stronger effect = lower value
Summary of the method: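 Complex tumor spheroids co-cultured with HUVEC and human MSC stroma; AhR antagonists tested in combination with standard-of-care and investigational agents. Top concentration at or near clinical Cmax (else 10 microM), half-log dilutions; growth expressed as percent test/control.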

[1] = second compound 0.1 µM, first compound 0.0316 µM
[2] = second compound 0.1 µM, first compound 0.1 µM
[3] = second compound 0.1 µM, first compound 0.316 µM
[4] = second compound 0.1 µM, first compound 1 µM
[5] = second compound 0.1 µM, first compound 3.16 µM
[6] = second compound 0.1 µM, first compound 10 µM
[7] = second compound 0.316 µM, first compound 0.0316 µM
[8] = second compound 0.316 µM, first compound 0.1 µM
[9] = second compound 0.316 µM, first compound 0.316 µM
[10] = second compound 0.316 µM, first compound 1 µM
[11] = second compound 0.316 µM, first compound 3.16 µM
[12] = second compound 0.316 µM, first compound 10 µM
[13] = second compound 1 µM, first compound 0.0316 µM
[14] = second compound 1 µM, first compound 0.1 µM
[15] = second compound 1 µM, first compound 0.316 µM
[16] = second compound 1 µM, first compound 1 µM
[17] = second compound 1 µM, first compound 3.16 µM
[18] = second compound 1 µM, first compound 10 µM
[19] = second compound 3.16 µM, first compound 0.0316 µM
[20] = second compound 3.16 µM, first compound 0.1 µM
[21] = second compound 3.16 µM, first compound 0.316 µM
[22] = second compound 3.16 µM, first compound 1 µM
[23] = second compound 3.16 µM, first compound 3.16 µM
[24] = second compound 3.16 µM, first compound 10 µM
[25] = second compound 10 µM, first compound 0.0316 µM
[26] = second compound 10 µM, first compound 0.1 µM
[27] = second compound 10 µM, first compound 0.316 µM
[28] = second compound 10 µM, first compound 1 µM
[29] = second compound 10 µM, first compound 3.16 µM
[30] = second compound 10 µM, first compound 10 µM

SMILES | IC50 (second compound 0.1 µM) [µM] | IC50 (second compound 0.316 µM) [µM] | IC50 (second compound 1 µM) [µM] | IC50 (second compound 3.16 µM) [µM] | IC50 (second compound 10 µM) [µM] | viability, T/C [1] [%] | viability, T/C [2] [%] | viability, T/C [3] [%] | viability, T/C [4] [%] | viability, T/C [5] [%] | viability, T/C [6] [%] | viability, T/C [7] [%] | viability, T/C [8] [%] | viability, T/C [9] [%] | viability, T/C [10] [%] | viability, T/C [11] [%] | viability, T/C [12] [%] | viability, T/C [13] [%] | viability, T/C [14] [%] | viability, T/C [15] [%] | further results
COc1cc(Nc2ncc3c(n2)-c2ccc(Cl)cc2C(c2c(F)cccc2OC)=NC3)ccc1C(=O)O + Cc1cncc(-c2nc(NCCc3c[nH]c4ccccc34)c3ncn(C(C)C)c3n2)c1 | < 0.0316 | < 0.0316 | < 0.0316 | < 0.0316 | < 0.0316 | 34.3 | 23.1 | 44.3 | 53.2 | 65.4 | 72.5 | 28.4 | 22.3 | 40.9 | 62.1 | 61.6 | 64.6 | 30.1 | 21.3 | 41.7 | viability, T/C [16]: 66%; viability, T/C [17]: 61.7%; viability, T/C [18]: 70.5%; viability, T/C [19]: 24.5%; viability, T/C [20]: 14.9%; viability, T/C [21]: 36.3%; viability, T/C [22]: 57.2%; viability, T/C [23]: 69.8%; viability, T/C [24]: 63%; viability, T/C [25]: 16.4%; viability, T/C [26]: 8.12%; viability, T/C [27]: 19%; viability, T/C [28]: 34.3%; viability, T/C [29]: 32.4%; viability, T/C [30]: 38.4%
NS(=O)(=O)OCC1CC(n2ccc3c(NC4CCc5ccccc54)ncnc32)CC1O (stereo not given) + Cc1cncc(-c2nc(NCCc3c[nH]c4ccccc34)c3ncn(C(C)C)c3n2)c1 | 0.0503 | 0.0458 | 0.042 | 0.0405 | < 0.0316 | 59.4 | 36 | 17.1 | 7.31 | 5.19 | 4.45 | 56.9 | 35.4 | 16.1 | 6.55 | 5.26 | 3.74 | 55 | 34.7 | 17.6 | viability, T/C [16]: 6.95%; viability, T/C [17]: 4.06%; viability, T/C [18]: 4.6%; viability, T/C [19]: 54.9%; viability, T/C [20]: 32.2%; viability, T/C [21]: 15.8%; viability, T/C [22]: 4.55%; viability, T/C [23]: 4.39%; viability, T/C [24]: 2.86%; viability, T/C [25]: 42.2%; viability, T/C [26]: 24.6%; viability, T/C [27]: 12.2%; viability, T/C [28]: 3.49%; viability, T/C [29]: 2.11%; viability, T/C [30]: 1.61%
O=C(C=Cc1cccc(S(=O)(=O)Nc2ccccc2)c1)NO + Cc1cncc(-c2nc(NCCc3c[nH]c4ccccc34)c3ncn(C(C)C)c3n2)c1 | 0.451 | 0.402 | 0.429 | 0.355 | < 0.0316 | 100 | 91.9 | 59.5 | 27.5 | 11.7 | 9.54 | 84.3 | 77.7 | 55.4 | 28.3 | 10.2 | 9.73 | 90.1 | 80 | 59.2 | viability, T/C [16]: 26.9%; viability, T/C [17]: 10.7%; viability, T/C [18]: 9.6%; viability, T/C [19]: 78.8%; viability, T/C [20]: 75.5%; viability, T/C [21]: 52.8%; viability, T/C [22]: 21.3%; viability, T/C [23]: 8.43%; viability, T/C [24]: 7.76%; viability, T/C [25]: 46.9%; viability, T/C [26]: 34%; viability, T/C [27]: 20.1%; viability, T/C [28]: 9.92%; viability, T/C [29]: 4.09%; viability, T/C [30]: 4.15%
